Reference: paper PMC8960621, “Solution speciation and human serum protein binding of indium(III) complexes of 8-hydroxyquinoline, deferiprone and maltol” (Journal of Biological Inorganic Chemistry, 2022)

How the values were obtained:
[1] = parameters: method as in PMID 23089600; conditions: 10 μM, pH 7.4; cited from earlier work
[2] = parameters: method as in PMID 25398250; conditions: same LMM competitors in tenfold excess, investigated separately; cited from earlier work
[3] = Interaction of tris-ligand complexes with low molecular mass serum components (phosphate, citrate, oxalate), UV-vis; type: physicochemical; conditions: tenfold excess of the LMM ligands (phosphate, citrate, oxalate), pH 7.4
Text: As a first step, interaction of the tris-ligand In(III) complexes with various LMM blood serum components was investigated and compared to that of GaQ3 studied formerly in our research group. The LMM compounds are considered to be more mobile than the high molecular mass components (HMM) such as proteins, and generally their reaction is characterized by faster kinetics. The role of serum compounds might have importance on the distribution of the In(III) complexes since they may be responsible for (partial) displacement of the originally coordinated ligand and they can also form mixed-ligand complexes. The complexes of In(III) and Ga(III) formed with HQ (InQ3, GaQ3), deferiprone (InD3) and maltol (InM3) were prepared in an aqueous solution by mixing the respective ligand and the metal ion in 3:1 ratio. […] All the measurements in this work were performed at 25 °C as most of the stability constants used for the modeling calculations published in the literature were determined at this temperature. UV–vis spectra recorded for the tris-ligand complexes at 10 μM concentration (see Fig. S1a for InQ3) in this buffer show 94%, 90% and < 20% non-dissociated InQ3, InD3 and InM3, respectively, which corresponds well to the fractions obtained using the stability constants determined at 0.20 M KCl: 90% (InQ3), 86% (InD3) and 9% InM3 and 6% InM^2+. […]

apoTf [4] = biological target: T1, apoTf (Homo sapiens, UniProt P02787); test: Fluorescence lifetime (TCSPC) of InQ3 in the presence of apoTf; type: binding; conditions: in the presence of 0.1 – 0.3 equiv. apoTf, after 1 min waiting time
T1 construct: purchased Sigma-Aldrich T2036
Description: Therefore, UV–vis and fluorescence emission spectra of InQ3 were recorded in the presence of increasing amounts of apoTf (Fig. 5a, b). After a short initial phase, the absorbance band of InQ3 is reduced gradually by the addition of the protein, while the development of the new band at lower wavelengths (at ca. 310 nm) refers to the liberation of HQ. Namely, there is a competition for In(III) ion between the ligand and the iron-binding sites of apoTf. Absorbance values depicted at 370 nm and 310 nm (Fig. 5c) saturate roughly to the corresponding values of the free ligand and outline a sigmoidal shape. Fluorescence intensity of the same sample set (Fig. 5b, d) was enhanced and moderately blue shifted (from λmax = 540 nm to 532 nm) until the addition of ca. 0.2 equiv. apoTf. […] Then, by the addition of more apoTf, intensities decreased and λmax shifted further to shorter wavelengths (527 nm). […] This is further supported by fluorescence lifetime measurements; where new lifetime components τ3 = 4.7 ± 0.2 ns and τ4 = 13.8 ± 0.4 ns appeared for InQ3 in the presence of 0.1 – 0.3 equiv. apoTf (after 1 min waiting time). […] Here, the sigmoid shape of the UV–vis absorbance was seen again (Fig. S5) and the shifted inflection point in comparison to the titration with apoTf underlines the lower In(III) binding capacity of Tf. […]

apoTf [5] = biological target: T1, apoTf; test: apoTf fluorescence quenching; type: binding; conditions: λEM = 330 nm
Description: Fluorescence quenching is a convenient technique to study the binding of metal ions at the iron-binding sites of apoTf since it results in reduced fluorescence intensity of Tf. Batch samples containing 1 μM apoTf and various amounts of In(III) compounds were prepared. […] The partial (and not complete) quenching of apoTf can be explained by the presence of numerous Tyr (26) and Trp (8) residues in the protein among which only a few are affected by the binding of In(III) at the iron-binding sites. Upon addition of InQ3, the quenching curve is more stretched and aims to lower intensities (Fig. 4b). Interaction of the non-dissociated complex InQ3 with apoTf cannot be excluded, the latter proposed interaction is realized via intermolecular binding mode and more likely takes place on site(s) other than the iron-binding pockets (vide infra).
Fluorescence studies were implemented by a Fluoromax (Horiba Jobin Yvon) fluorometer in 1 cm quartz cells. Samples contained 1 μM HSA or (apo)Tf and various protein-to-metal complex (or InCl3) ratios (up to complex/HSA = 1:30) were used. […] Intrinsic fluorescence of complex InQ3 was also followed at λEX = 367 nm, and λEM = 450 – 650 nm. In this setup, the complex concentration was ca. 10 or 20 μM, and protein (HSA, (apo)Tf) concentration was varied between 0 and 130 μM, and residual fluorescence of the proteins were subtracted if it was necessary. […]

T1 sequence (P02787 20-698): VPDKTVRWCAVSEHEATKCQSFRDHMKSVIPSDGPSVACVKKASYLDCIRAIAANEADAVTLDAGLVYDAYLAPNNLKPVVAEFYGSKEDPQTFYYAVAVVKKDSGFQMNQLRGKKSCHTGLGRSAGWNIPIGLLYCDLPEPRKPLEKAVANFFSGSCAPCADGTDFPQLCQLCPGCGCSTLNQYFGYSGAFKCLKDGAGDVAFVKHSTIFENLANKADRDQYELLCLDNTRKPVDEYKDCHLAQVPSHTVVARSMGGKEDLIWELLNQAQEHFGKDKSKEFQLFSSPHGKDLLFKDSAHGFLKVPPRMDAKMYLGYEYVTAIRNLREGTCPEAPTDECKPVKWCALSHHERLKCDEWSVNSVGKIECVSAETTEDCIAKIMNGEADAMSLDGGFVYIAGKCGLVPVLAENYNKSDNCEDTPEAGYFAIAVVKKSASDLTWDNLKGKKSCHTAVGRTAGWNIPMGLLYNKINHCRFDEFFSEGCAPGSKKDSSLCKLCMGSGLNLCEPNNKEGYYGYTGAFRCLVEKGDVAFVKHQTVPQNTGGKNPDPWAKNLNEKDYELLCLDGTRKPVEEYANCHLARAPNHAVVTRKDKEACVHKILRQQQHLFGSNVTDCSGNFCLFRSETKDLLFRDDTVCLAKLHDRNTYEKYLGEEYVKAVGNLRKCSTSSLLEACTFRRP

[Ga+3].[O-]c1cccc2cccnc12.[O-]c1cccc2cccnc12.[O-]c1cccc2cccnc12 [GaQ3, Tris(8-Quinolinolato)gallium(III), reference compound]
fraction of tris-ligand complex [1]: 86%
effect of LMM competitors on the complex [2]: practically not affected

[In+3].[O-]c1cccc2cccnc12.[O-]c1cccc2cccnc12.[O-]c1cccc2cccnc12 [InQ3, Tris(8-Quinolinolato)indium(III)]
complex remained [3]: ca. 34%
τ3 (apoTf [4]): 4.7 ± 0.2 ns
τ4 (apoTf [4]): 13.8 ± 0.4 ns

Cc1c([O-])c(=O)ccn1C.Cc1c([O-])c(=O)ccn1C.Cc1c([O-])c(=O)ccn1C.[In+3] [InD3]
apoTf emission stabilized at % of the initial intensity (apoTf [5]; 1 μM apoTf, λEX = 280 nm, pH 7.40): ca. 83%
breakpoint of the quenching curve, complex-to-Tf ratio (apoTf [5]): ca. 2
